Here are results for 13 molecules from ChEMBL document CHEMBL4825673, “Total and Semisyntheses of Polymyxin Analogues with 2-Thr or 10-Thr Modifications to Decipher the Structure-Activity Relationship and Improve the Antibacterial Activity” (J Med Chem, 2021).

What all share (format): functional
Holding throughout (details): read-out: MIC100

Assay [1] relates to Escherichia coli. The assay can be described thus: Antibacterial activity against Escherichia coli assessed as inhibition of bacterial growth incubated for 24 hrs by broth microdilution method.
The test system of assay [2] is Pseudomonas aeruginosa. The assay can be described thus: Antibacterial activity against Pseudomonas aeruginosa assessed as inhibition of bacterial growth incubated for 24 hrs by broth microdilution method. Background: In broth dilution the organism is exposed to a series of concentrations in liquid medium.
Assay [3] deals with Pseudomonas aeruginosa. The experiment in a line: Antibacterial activity against Pseudomonas aeruginosa PAO1 assessed as inhibition of bacterial growth incubated for 24 hrs by broth microdilution method.
Assay [4] concerns Moraxella catarrhalis. The assay can be described thus: Antibacterial activity against Moraxella catarrhalis assessed as inhibition of bacterial growth incubated for 24 hrs by broth microdilution method.
Assay [5] concerns Klebsiella pneumoniae. The experiment in a line: Antibacterial activity against Klebsiella pneumoniae assessed as inhibition of bacterial growth incubated for 24 hrs by broth microdilution method.
Assay [6] has as its system Acinetobacter baumannii. The assay can be described thus: Antibacterial activity against Acinetobacter baumannii assessed as inhibition of bacterial growth incubated for 24 hrs by broth microdilution method.

Each structure is given as a SMILES string. In brackets after ≈: the same amount, converted by molar mass. Positions of bridges follow the written chain, without caps; N, C: chain ends. Non-standard residues stand in square brackets, D forms with d. Residues, ends and D or L forms follow the SMILES beside them. *: point of attachment. Octanoyl = CCCCCCCC(=O)*; Dab = NCC[C@H](N)C(=O)O

`CCCCCCCC(=O)N[C@@H](CCN)C(=O)N[C@H](C(=O)N[C@@H](CCN)C(=O)N[C@H]1CCNC(=O)[C@H](CCN)NC(=O)[C@H](CCN)NC(=O)[C@H](CCN)NC(=O)[C@H](CC(C)C)NC(=O)[C@@H](Cc2ccccc2)NC(=O)[C@H](CCN)NC1=O)[C@@H](C)O`: the MIC in assay [1] was 8 µg/mL (≈ 6.73 µM); in assay [2], 8 µg/mL (≈ 6.73 µM); in assay [3], 64 µg/mL (≈ 53.8 µM); in assay [4], 8 µg/mL (≈ 6.73 µM); in assay [5] it was more than 32 µg/mL; in assay [6], 0.25 µg/mL (≈ 0.21 µM).

On to `CC(C)CCCCC(=O)N[C@@H](CCN)C(=O)N[C@H](C(=O)N[C@@H](CCN)C(=O)N[C@H]1CCNC(=O)[C@H]([C@@H](C)O)NC(=O)[C@H](CCN)NC(=O)[C@H](CCN)NC(=O)[C@H](CC(C)C)NC(=O)[C@@H](Cc2ccccc2)NC(=O)[C@H](CCN)NC1=O)[C@@H](C)OC(=O)[C@@H](N)CO`, for which the MIC in assay [1] was 0.25 µg/mL (≈ 0.196 µM); in assay [2] it was 0.25 µg/mL (≈ 0.196 µM); in assay [3] it was 1 µg/mL (≈ 0.783 µM); in assay [4] it was 32 µg/mL (≈ 25.1 µM); in assay [5], 1 µg/mL (≈ 0.783 µM); in assay [6], 0.125 µg/mL (≈ 0.0979 µM).

In the case of `CC(C)CCCCC(=O)N[C@@H](CCN)C(=O)N[C@H](C(=O)N[C@@H](CCN)C(=O)N[C@H]1CCNC(=O)[C@H]([C@@H](C)O)NC(=O)[C@H](CCN)NC(=O)[C@H](CCN)NC(=O)[C@H](CC(C)C)NC(=O)[C@@H](Cc2ccccc2)NC(=O)[C@H](CCN)NC1=O)C(C)C`, the MIC was 8 µg/mL (≈ 6.74 µM) in assay [1]; 0.5 µg/mL (≈ 0.421 µM) in assay [2]; 4 µg/mL (≈ 3.37 µM) in assay [3]; 8 µg/mL (≈ 6.74 µM) in assay [4]; more than 16 µg/mL in assay [5]; 16 µg/mL (≈ 13.5 µM) in assay [6].

Regarding `CC(C)CCCCC(=O)N[C@@H](CCN)C(=O)N[C@H](C(=O)N[C@@H](CCN)C(=O)N[C@H]1CCNC(=O)[C@H]([C@@H](C)O)NC(=O)[C@H](CCN)NC(=O)[C@H](CCN)NC(=O)[C@H](CC(C)C)NC(=O)[C@@H](Cc2ccccc2)NC(=O)[C@H](CCN)NC1=O)[C@@H](C)OC(=O)[C@@H](N)CCCCN`, the MIC in assay [1] is 0.5 µg/mL (≈ 0.379 µM); in assay [2], 0.25 µg/mL (≈ 0.19 µM); in assay [3], 2 µg/mL (≈ 1.52 µM); in assay [4], more than 64 µg/mL; in assay [5] it was 4 µg/mL (≈ 3.04 µM); in assay [6] it was 0.125 µg/mL (≈ 0.0949 µM).

Turning to `CC(C)CCCCC(=O)N[C@@H](CCN)C(=O)N[C@H](C(=O)N[C@@H](CCN)C(=O)N[C@H]1CCNC(=O)[C@H]([C@@H](C)O)NC(=O)[C@H](CCN)NC(=O)[C@H](CCN)NC(=O)[C@H](CC(C)C)NC(=O)[C@@H](Cc2ccccc2)NC(=O)[C@H](CCN)NC1=O)[C@@H](C)OC(=O)[C@@H](N)C(C)C`, the MIC in assay [1] was 0.5 µg/mL (≈ 0.388 µM); in assay [2], 0.5 µg/mL (≈ 0.388 µM); in assay [3], 2 µg/mL (≈ 1.55 µM); in assay [4], more than 32 µg/mL; in assay [5], 4 µg/mL (≈ 3.1 µM); in assay [6] it was 1 µg/mL (≈ 0.776 µM).

As for `CCCCCCCC(=O)N[C@@H](CCN)C(=O)N[C@@H](CCSC)C(=O)N[C@@H](CCN)C(=O)N[C@H]1CCNC(=O)[C@H]([C@@H](C)O)NC(=O)[C@H](CCN)NC(=O)[C@H](CCN)NC(=O)[C@H](CC(C)C)NC(=O)[C@@H](Cc2ccccc2)NC(=O)[C@H](CCN)NC1=O`, the MIC is 4 µg/mL (≈ 3.28 µM) in assay [1]; 0.125 µg/mL (≈ 0.102 µM) in assay [2]; 2 µg/mL (≈ 1.64 µM) in assay [3]; 8 µg/mL (≈ 6.56 µM) in assay [4]; more than 64 µg/mL in assay [5]; 2 µg/mL (≈ 1.64 µM) in assay [6].

For `CC(C)CCCCC(=O)N[C@@H](CCN)C(=O)N[C@H](C(=O)N[C@@H](CCN)C(=O)N[C@H]1CCNC(=O)[C@H]([C@@H](C)O)NC(=O)[C@H](CCN)NC(=O)[C@H](CCN)NC(=O)[C@H](CC(C)C)NC(=O)[C@@H](Cc2ccccc2)NC(=O)[C@H](CCN)NC1=O)[C@@H](C)OC(=O)[C@@H](N)Cc1c[nH]cn1`, the MIC came out at 0.5 µg/mL (≈ 0.377 µM) in assay [1]; 0.5 µg/mL (≈ 0.377 µM) in assay [2]; 2 µg/mL (≈ 1.51 µM) in assay [3]; 8 µg/mL (≈ 6.03 µM) in assay [4]; 4 µg/mL (≈ 3.02 µM) in assay [5]; 0.125 µg/mL (≈ 0.0942 µM) in assay [6].

For the molecule `CC(C)CCCCC(=O)N[C@@H](CCN)C(=O)N[C@H](C(=O)N[C@@H](CCN)C(=O)N[C@H]1CCNC(=O)[C@H]([C@@H](C)O)NC(=O)[C@H](CCN)NC(=O)[C@H](CCN)NC(=O)[C@H](CC(C)C)NC(=O)[C@@H](Cc2ccccc2)NC(=O)[C@H](CCN)NC1=O)[C@@H](C)OC(=O)[C@@H](N)CC(C)C`, the MIC is 0.25 µg/mL (≈ 0.192 µM) in assay [1]; 0.125 µg/mL (≈ 0.096 µM) in assay [2]; 4 µg/mL (≈ 3.07 µM) in assay [3]; more than 16 µg/mL in assay [4]; 1 µg/mL (≈ 0.768 µM) in assay [5]; 0.06 µg/mL (≈ 0.0461 µM) in assay [6].

With `CC(C)CCCCC(=O)N[C@@H](CCN)C(=O)N[C@H](C(=O)N[C@@H](CCN)C(=O)N[C@H]1CCNC(=O)[C@H]([C@@H](C)O)NC(=O)[C@H](CCN)NC(=O)[C@H](CCN)NC(=O)[C@H](CC(C)C)NC(=O)[C@@H](Cc2ccccc2)NC(=O)[C@H](CCN)NC1=O)[C@@H](C)OC(=O)[C@@H](N)Cc1ccccc1`, the MIC in assay [1] was 0.5 µg/mL (≈ 0.374 µM); in assay [2] it was 0.25 µg/mL (≈ 0.187 µM); in assay [3], 4 µg/mL (≈ 2.99 µM); in assay [4] it was more than 32 µg/mL; in assay [5] it was 0.5 µg/mL (≈ 0.374 µM); in assay [6], 0.25 µg/mL (≈ 0.187 µM).

On to `CC(C)CCCCC(=O)N[C@@H](CCN)C(=O)N[C@H](C(=O)N[C@@H](CCN)C(=O)N[C@H]1CCNC(=O)[C@H]([C@@H](C)O)NC(=O)[C@H](CCN)NC(=O)[C@H](CCN)NC(=O)[C@H](CC(C)C)NC(=O)[C@@H](Cc2ccccc2)NC(=O)[C@H](CCN)NC1=O)[C@H](C)OC(=O)[C@@H](N)CCC(N)=O`, for which the MIC is 0.5 µg/mL (≈ 0.379 µM) in assay [1]; 0.25 µg/mL (≈ 0.19 µM) in assay [2]; 2 µg/mL (≈ 1.52 µM) in assay [3]; more than 32 µg/mL in assay [4]; 2 µg/mL (≈ 1.52 µM) in assay [5]; 0.06 µg/mL (≈ 0.0455 µM) in assay [6].

As to `CC(C)CCCCC(=O)N[C@@H](CCN)C(=O)N[C@@H](Cc1ccccc1)C(=O)N[C@@H](CCN)C(=O)N[C@H]1CCNC(=O)[C@H]([C@@H](C)O)NC(=O)[C@H](CCN)NC(=O)[C@H](CCN)NC(=O)[C@H](CC(C)C)NC(=O)[C@@H](Cc2ccccc2)NC(=O)[C@H](CCN)NC1=O`, the MIC in assay [1] is 4 µg/mL (≈ 3.24 µM); in assay [2], 0.5 µg/mL (≈ 0.405 µM); in assay [3], 4 µg/mL (≈ 3.24 µM); in assay [4], 4 µg/mL (≈ 3.24 µM); in assay [5], more than 32 µg/mL; in assay [6], 16 µg/mL (≈ 12.9 µM).

Turning to `CCCCCCCC(=O)N[C@@H](CCN)C(=O)N[C@H](C(=O)N[C@@H](CCN)C(=O)N[C@H]1CCNC(=O)[C@H](CC(C)C)NC(=O)[C@H](CCN)NC(=O)[C@H](CCN)NC(=O)[C@H](CC(C)C)NC(=O)[C@@H](Cc2ccccc2)NC(=O)[C@H](CCN)NC1=O)[C@@H](C)O` (Octanoyl-[Dab]T[Dab][Dab][Dab][dF]L[Dab][Dab]L; lactam 4-C), the MIC came to 4 µg/mL (≈ 3.33 µM) in assay [1]; 0.25 µg/mL (≈ 0.208 µM) in assay [2]; 4 µg/mL (≈ 3.33 µM) in assay [3]; 2 µg/mL (≈ 1.66 µM) in assay [4]; 2 µg/mL (≈ 1.66 µM) in assay [5]; 2 µg/mL (≈ 1.66 µM) in assay [6].

In the case of `CC(C)CCCCC(=O)N[C@@H](CCN)C(=O)N[C@H](C(=O)N[C@@H](CCN)C(=O)N[C@H]1CCNC(=O)[C@H]([C@@H](C)OC(=O)CN)NC(=O)[C@H](CCN)NC(=O)[C@H](CCN)NC(=O)[C@H](CC(C)C)NC(=O)[C@@H](Cc2ccccc2)NC(=O)[C@H](CCN)NC1=O)[C@@H](C)OC(=O)CN`, the MIC in assay [1] is 0.25 µg/mL (≈ 0.192 µM); in assay [2], 0.25 µg/mL (≈ 0.192 µM); in assay [3], 1 µg/mL (≈ 0.767 µM); in assay [4], more than 64 µg/mL; in assay [5], 1 µg/mL (≈ 0.767 µM); in assay [6] it was 0.125 µg/mL (≈ 0.0959 µM).
